Among the data in patent US9745272B2, “Quinazoline-2,4(1 H,3H)-dione derivatives” (Hydra Biosciences, Inc., priority 2014, dated 2017) are IC50 values, retold here.

Each structure is given as a SMILES string.

For orientation: IC50 means the concentration needed to halve the response being measured.

Assay [1] has as its target T1, TRPC5 channel (Homo sapiens, UniProt Q9UL62).
T1 construct: expressed in transfected cells; host or cells: HEK293/TREx (Invitrogen), stably transfected, induced with tetracycline
T1 sequence (Q9UL62 1-973): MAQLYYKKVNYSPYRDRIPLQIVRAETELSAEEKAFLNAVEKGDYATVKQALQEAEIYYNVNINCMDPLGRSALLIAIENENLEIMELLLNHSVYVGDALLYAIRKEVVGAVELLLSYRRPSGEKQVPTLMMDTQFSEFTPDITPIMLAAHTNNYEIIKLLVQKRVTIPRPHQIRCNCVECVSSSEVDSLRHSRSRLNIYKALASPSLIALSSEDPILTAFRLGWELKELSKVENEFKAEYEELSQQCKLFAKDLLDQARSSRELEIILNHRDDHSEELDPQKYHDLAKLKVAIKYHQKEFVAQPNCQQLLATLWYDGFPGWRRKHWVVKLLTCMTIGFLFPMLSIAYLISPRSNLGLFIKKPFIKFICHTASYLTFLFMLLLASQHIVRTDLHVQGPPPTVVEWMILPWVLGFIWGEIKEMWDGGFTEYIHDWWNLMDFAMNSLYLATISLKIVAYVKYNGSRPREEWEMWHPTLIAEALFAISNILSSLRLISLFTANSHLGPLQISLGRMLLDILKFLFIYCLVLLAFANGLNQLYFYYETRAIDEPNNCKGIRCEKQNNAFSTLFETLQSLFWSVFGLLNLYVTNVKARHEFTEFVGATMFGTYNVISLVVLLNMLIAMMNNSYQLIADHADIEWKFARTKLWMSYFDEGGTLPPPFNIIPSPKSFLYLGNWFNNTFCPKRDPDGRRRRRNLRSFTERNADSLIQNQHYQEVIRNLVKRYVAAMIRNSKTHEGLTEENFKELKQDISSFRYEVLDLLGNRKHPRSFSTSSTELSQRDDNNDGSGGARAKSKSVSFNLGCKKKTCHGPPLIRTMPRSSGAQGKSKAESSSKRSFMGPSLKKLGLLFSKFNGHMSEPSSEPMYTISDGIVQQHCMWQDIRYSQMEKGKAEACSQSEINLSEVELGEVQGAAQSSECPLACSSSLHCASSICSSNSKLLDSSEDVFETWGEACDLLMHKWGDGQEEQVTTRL
As to the kind of experiment: High throughput screening assay: Fluo4 cell-based fluorescence assay of intracellular Ca2+ rise in HEK293/TREx cells inducibly expressing TRPC5. To be noted: Table 2, Ca2+ influx, 14 mM Ca2+. An excerpt: The assay depended on detection of the rise in intracellular Ca2+ concentration ([Ca2+]i) following channel activation in cells inducibly expressing the TRPC5 channel. Ca2+ rise was quantified with the use of fluorescent Ca2+ indicators that were loaded into cells and thereafter indicated the [Ca2+]i Ca2+ influx followed activation of the TRPC5 channel. Compounds inhibiting the [Ca2+]i rise were considered hits for further investigation.
The commercially available HEK293/TREx line (Invitrogen) was stably transfected with a TRPC5 construct and screened by conventional calcium imaging to find clones with TRPC5 expression following stimulation with 1 μg/ml tetracycline. These cells were maintained in the growth medium recommended by the manufacturer supplemented with 100 μg/ml hygromycin to promote retention of the TRPC5 construct. After growing to near confluency, cells were plated at a density of ˜35,000 cells/well in 384 well CellBind plates (Corning) in the presence of 1 μg/ml tetracycline, and allowed to grow for 20-30 hrs. A nearly confluent monolayer resulted. Cells were then loaded with Ca2+ dye: Fura-2/AM or Fluo4/AM was added to the wells to a final concentration of 4 μM or 0.5 μM, respectively, and incubated for 80 min or 60 min, respectively, at room temperature. Supernatant was then removed from the cells by inverting plates with a sharp flick, and 25 μl Hank's Balanced Salt Solution (HBSS; 0.185 g/l D-glucose, 0.9767 g/l MgS04 (anhydrous), 0.4 g/l KCl, 0.06 g/l KH2PO4 (anhydrous), 0.35 g/l NaHCO3, 8.0 g/l NaCl, and 0.04788 g/l Na2HPO4 (anhydrous); pH 7.4) was then added to each well. Following ˜0.5 hour for recovery from loading, cells were assayed using the Hamamatsu FDSS 6000 system, which permitted illumination alternately at 340 nm and 380 nm for Fura-2 experiments, or at 485 nm for Fluo4 experiments. Frames were acquired at a rate of 0.2 Hz. During the assay, the plates were continuously vortexed, with pipette mixing of wells following addition of each reagent. For the screening assay, 26 μl of a diluted compound stock (at 50 μM) was added to each well for 2 minutes following the collection of a short (4 frame) baseline. 13 μl 62 mM high-Ca2+ Ringer solution (4.17 ml of normal ringer (with 2 mM Ca2+) plus 5.83 ml of isotonic calcium ringer (105 mM Ca2+; in this ringer all sodium has been replaced with calcium)) was then added to each well, achieving a final concentration of 14 mM Ca2+ and 10 μM test compound. Data was collected for ˜3 minutes following addition of high Ca2+ Ringer, where the fluorescent intensity (for Fluo4) and the F340/F380 ratio (for Fura-2) were proportional to the [Ca2+]i Negative controls consisted of HEK293/TREx TRPC5 cells exposed to high Ca2+ solution, but no compound. Positive control conditions consisted of addition of 2-APB, a promiscuous blocker of TRPC5 and other channels, to columns 23 and 24 of the plates, to a final concentration of 200 μM. These controls defined a screening window, and “hits” were defined as those compounds inhibiting the fluorescence response by at least 40%. IC50 values were determined for compounds defined as “hits.” The Fluo4 cell-based fluorescence assay was used to determine the intracellular Ca2+ concentration in the presence of varying drug concentration. Final concentrations of compounds tested were 20 μM, 6.667 μM, 2.222 μM, 0.741 μM, 0.247 μM, 0.082 μM, and 0.027 μM. Compounds were tested in triplicate at all concentrations. Standard software was used to fit IC50 curves. […]

The target of assay [2] is T1, TRPC5 channel. Description: Whole-cell patch clamp experiments, TRPC5 current activated by LaCl3 in TRPC5-expressing HEK293 TREx cells. It is filed as cell-based. To be noted: Table 3, block of TRPC5 current in continued presence of LaCl3, IC50 estimated. From the text:
Patch clamp experiments permit the detection of currents through the TRPC5 channel in the cell line described above. In normal whole-cell patch clamp recordings, a glass electrode is brought into contact with a single cell and a high-resistance (gigaohm) seal is established with the cell membrane. The membrane is then ruptured to achieve the whole-cell configuration, permitting control of the voltage of the cell membrane and measurement of currents flowing across the membrane using the amplifier attached to the electrode and resulting in the replacement of cytoplasm with the pipette solution. A perfusion system permits control of the extracellular solution, including the addition of blockers and activators of the current. The current can be activated by including 1.4 μM free Ca^2+ in the pipette (intracellular) solution, and 80 μM LaCl3 in the extracellular solution.
TRPC5 cells were induced 20-48 hours, removed from growth plates, and replated at low density (to attain good single-cell physical separation) on glass coverslips for measurement. In some cases, cells were grown in low density overnight on glass coverslips. Patch clamp recordings were made in the whole-cell mode with a holding potential of −40 mV. Every 5 seconds, a voltage ramp was applied from −120 to +100 mV, 400 ms in duration. Currents elicited were quantified at −80 mV and +80 mV. The internal solution consisted of 140 mM cesium aspartate, 10 mM HEDTA, 2 mM CaCl2, 2.27 mM MgCl2 and 10 mM HEPES, pH 7.2, with 1,400 nM calculated free Ca^2+. The external solution consisted of 150 mM NaCl, 4.5 mM KCl, 1 mM MgCl2, 2 mM CaCl2, 10 mM HEPES, 10 mM glucose, 1 mM EGTA, pH 7.4. Upon addition of LaCl3, TRPC5 current was induced only in TRPC5-expressing cells and not in parental HEK293 TREx cells. Removal of the LaCl3 stimulus causes most of the current to go away. Potential blockers were tested for ability to block both inward and outward currents in the continued presence of LaCl3.
IC50 of a compound of Formula (I) was estimated by testing the compound at 5 μM and 500 nM. […] IC50 for a compound of Formula (I) between 500 nM and 5 μM was similarly estimated.

As for `Cn1c(=O)n(CCCO)c(=O)c2c(Cc3ccccc3)c(-c3cccc(OC(F)(F)F)c3)ccc21` [Compound 13, 5-benzyl-3-(3-hydroxypropyl)-1-methyl-6-(3-(trifluoromethoxy)phenyl)quinazoline-2,4(1H,3H)-dione], the IC50 in assay [1] came to 31.2 nM.

With `CCOc1ccc2c(c1Cc1ccc(Cl)cc1)c(=O)n(CCCO)c(=O)n2C` [Compound 11, 5-(4-chlorobenzyl)-6-ethoxy-3-(3-hydroxypropyl)-1-methylquinazoline-2,4(1H,3H)-dione], the 50% inhibitory concentration (IC50) in assay [2] is 4.2 nM.

As for `CCCOc1ccc2c(c1Cc1ccc(Cl)cc1)c(=O)n(CCCO)c(=O)n2C` [Compound 10, 5-(4-chlorobenzyl)-3-(3-hydroxypropyl)-1-methyl-6-propoxyquinazoline-2,4(1H,3H)-dione], the half-maximal inhibitory concentration (IC50) in assay [2] is 4.3 nM.

As for `Cn1c(=O)n(CCCO)c(=O)c2c(Cc3ccc(F)cc3)c(Oc3cccc(OC(F)(F)F)c3)ccc21` [Compound 6, 5-(4-fluorobenzyl)-3-(3-hydroxypropyl)-1-methyl-6-(3-(trifluoromethoxy)phenoxy)quinazoline-2,4(1H,3H)-dione], the IC50 was 61 nM in assay [1] and 1.77 nM in assay [2].

Consider `COc1ccc2c(c1Cc1ccccc1)c(=O)n(CCCO)c(=O)n2C` [Compound 2], for which inhibition in assay [1] was half-maximal at 27 nM (IC50).

For the compound `CCCOc1ccc2c(c1Cc1ccc(F)cc1)c(=O)n(CCCO)c(=O)n2C` [Compound 8, 5-(4-fluorobenzyl)-3-(3-hydroxypropyl)-1-methyl-6-propoxyquinazoline-2,4(1H,3H)-dione], the IC50 in assay [1] was 1.71 nM; in assay [2], 2 nM.

Take `Cn1c(=O)n(CCCO)c(=O)c2c(Cc3ccc(Cl)cc3)c(Oc3cccc(OC(F)(F)F)c3)ccc21` [Compound 4, 5-(4-chlorobenzyl)-3-(3-hydroxypropyl)-1-methyl-6-(3-(trifluoromethoxy)phenoxy)quinazoline-2,4(1H,3H)-dione]: the IC50 in assay [2] is 1.52 nM.

Take `Cn1c(=O)n(CCCO)c(=O)c2c(Cc3ccccc3)c(Oc3cccc(Cl)c3)ccc21` [Compound 3, 5-benzyl-6-(3-chlorophenoxy)-3-(3-hydroxypropyl)-1-methylquinazoline-2,4(1H,3H)-dione]: the IC50 in assay [1] was 395 nM; in assay [2], 2.1 nM.
